Patent US20050004186A1, “MEK inhibiting compounds” (Pfizer Inc, priority 2002, published 2005)

System: MEK
Assay: Cellular assay for measuring MEK inhibition, C26CPA1 (inhibition of ERK phosphorylation in C26 cells)
Type: cell-based, murine
Details: for IC50: murine colon 26 (C26) carcinoma cells, one hour at 37 C; for C26CPA1 % Inhibition @ 0.1 μM / C26CPA1 % Inhibition @ 1 μM: C26 cells
Experimental: Cellular Assay for Measuring MEK Inhibition
MEK inhibitors were evaluated by determining their ability to inhibit phosphorylation of MAP kinase (ERK) in murine colon 26 (C26) carcinoma cells. Since ERK1 and ERK2 represent the only known substrates for MEK1 and MEK2, the measurement of inhibition of ERK phosphorylation in cells provides direct read out of cellular MEK inhibition by the compounds of the invention. Detection of phosphorylation of ERK was carried out either by Western blot or ELISA format. Briefly, the assays involve treatment of exponentially growing C26 cells with varying concentrations of the test compound (or vehicle control) for one hour at 37≡ C. For Western blot assay, cells were rinsed free of compound/vehicle and lysed in a solution containing 70 mM NaCl, 50 mM glycerol phosphate, 10 mM HEPES, […], 1% Triton X-100, 1 mM Na3VO4, 100 μM PMSF, 10 μM leupeptin and 10 μM pepstatin. Supernatants were then subjected to gel electrophoresis and hybridized to a primary antibody recognizing dually phosphorylated ERK1 and ERK2. To evaluate total MAPK levels, blots were subsequently ‘stripped’ and re-probed with a 1:1 mixture of polyclonal antibodies recognizing unphosphorylated ERK1 and ERK2. For pERK ELISA assay, pERK TiterZyme Enzyme immunometric Assay kits were acquired from Assay Designs, Inc (Ann Arbor, Mich.). Briefly, cells were harvested in lysis solution containing 50 mM β-glycerophosphate, 10 mM HEPES, pH7.4, 70 mM NaCl, 2 mM EDTA and 1% SDS and protein lysates were diluted 1:15 with supplied Assay buffer prior to the execution of the assay. The subsequent steps were carried out essentially as recommended by the manufacturer.

Row | IC50 [nM] | Structure (SMILES) | C26CPA1 % Inhibition @ 0.1 μM [%] | C26CPA1 % Inhibition @ 1 μM [%]
1 | 80 | COCCCNc1nnc(-c2ccc(F)c(F)c2Nc2ccc(I)cc2F)o1 [Example 20, {5-[3,4-Difluoro-2-(2-fluoro-4-iodo-phenylamino)-phenyl]-[1,3,4]oxadiazol-2-yl}-(3-methoxy-propyl)-amine] |  | 
2 |  | CCN(CC)CCCC(C)Nc1nnc(-c2ccc(F)c(F)c2Nc2ccc(I)cc2F)o1 (stereo not shown) [Example 64, N*4*-{5-[3,4-Difluoro-2-(2-fluoro-4-iodo-phenylamino)-phenyl]-[1,3,4]oxadiazol-2-yl}-N*1* ,N*1*-diethyl-pentane-1,4-diamine] | 0 | 18.2
3 |  | CN1CCCC1CCNc1nnc(-c2ccc(F)c(F)c2Nc2ccc(I)cc2F)o1 (stereo not shown) [Example 62, {5-[3,4-Difluoro-2-(2-fluoro-4-iodo-phenylamino)-phenyl]-[1,3,4]oxadiazol-2-yl}-[2-(1-methyl-pyrrolidin-2-yl)-ethyl]-amine] | 53.7 | 98.5
4 |  | CCCNc1nnc(-c2ccc(F)c(F)c2Nc2ccc(I)cc2F)o1 [Example 45, {5-[3,4-Difluoro-2-(2-fluoro-4-iodo-phenylamino)-phenyl]-[1,3,4]oxadiazol-2-yl}-propyl-amine] | 3.1 | 31.4
5 |  | CCc1ccc(Nc2c(-c3nnc(NCC(c4cccnc4)N4CCOCC4)o3)ccc(F)c2F)c(F)c1 (stereo not shown) [Example 128, {5-[2-(4-Ethyl-2-fluoro-phenylamino)-3,4-difluoro-phenyl]-1,3,4-oxadiazol-2-yl}-(2-morpholin-4-yl-2-pyridin-3-yl-ethyl)-amine] | 0 | 0
6 |  | CCOC(=O)CCNc1nnc(-c2ccc(F)c(F)c2Nc2ccc(I)cc2F)o1 [Example 58, 3-{5-[3,4-Difluoro-2-(2-fluoro-4-iodo-phenylamino)-phenyl]-[1,3,4]oxadiazol-2-ylamino}-propionic Acid Ethyl Ester] | 0 | 17.8
7 | 230 | Cn1cnc(CCNc2nnc(-c3ccc(F)c(F)c3Nc3ccc(I)cc3F)o2)c1 [Example 53, {5-[3,4-Difluoro-2-(2-fluoro-4-iodo-phenylamino)-phenyl]-[1,3,4]oxadiazol-2-yl}-[2-(1-methyl-1H-imidazol-4-yl)-ethyl]-amine] |  | 
8 |  | CC(Nc1nnc(-c2ccc(F)c(F)c2Nc2ccc(I)cc2F)o1)C(C)(C)C (stereo not shown) [Example 49, {5-[3,4-Difluoro-2-(2-fluoro-4-iodo-phenylamino)-phenyl]-[1,3,4]oxadiazol-2-yl}-(1,2,2-trimethyl-propyl)-amine] | 0 | 0
9 |  | CCc1ccc(Nc2c(-c3nnc(N(C)CCS(C)(=O)=O)o3)ccc(F)c2F)c(F)c1 [Example 121, {5-[2-(4-Ethyl-2-fluoro-phenylamino)-3,4-difluoro-phenyl]-1,3,4-oxadiazol-2-yl}-(2-methanesulfonyl-ethyl)-methyl-amine] | 0 | 26.9
10 |  | CCCN(CC1CC1)c1nnc(-c2ccc(F)c(F)c2Nc2ccc(CC)cc2F)o1 [Example 100, Cyclopropylmethyl-{5-[2-(4-ethyl-2-fluoro-phenylamino)-3,4-difluoro-phenyl]-1,3,4-oxadiazol-2-yl}-propyl-amine] | 37.1 | 40.5
11 |  | COCCNc1nnc(-c2ccc(F)c(F)c2Nc2ccc(I)cc2F)o1 [Example 33, {5-[3,4-Difluoro-2-(2-fluoro-4-iodo-phenylamino)-phenyl]-[1,3,4]oxadiazol-2-yl}-(2-methoxy-ethyl)-amine] | 0 | 57.7
12 |  | CCc1ccc(Nc2c(-c3nnc(NC(C)Cc4ccsc4)o3)ccc(F)c2F)c(F)c1 (stereo not shown) [Example 137, {5-[2-(4-Ethyl-2-fluoro-phenylamino)-3,4-difluoro-phenyl]-1,3,4-oxadiazol-2-yl}-(1-methyl-2-thiophen-3-yl-ethyl)-amine] | 72.1 | 85.3
13 |  | COCC(C)Nc1nnc(-c2ccc(F)c(F)c2Nc2ccc(I)cc2F)o1 (stereo not shown) [Example 55, {5-[3,4-Difluoro-2-(2-fluoro-4-iodo-phenylamino)-phenyl]-[1,3,4]oxadiazol-2-yl}-(2-methoxy-1-methyl-ethyl)-amine] | 23.9 | 25.2
14 |  | CCc1ccc(Nc2c(-c3nnc(N(CCCN(C)C)CCCN(C)C)o3)ccc(F)c2F)c(F)c1 [Example 96, N^1-(3-Dimethylamino-propyl)-N^1-{5-[2-(4-ethyl-2-fluoro-phenylamino)-3,4-difluoro-phenyl]-1,3,4-oxadiazol-2-yl}-N>3,N>3-dimethyl-propane-1,3-diamine] | 54 | 55
15 | 140 | Nc1nnc(-c2ccc(F)c(F)c2Nc2ccc(Br)cc2F)o1 [Example 3, 5-[2-(4-Bromo-2-fluoro-phenylamino)-3,4-difluoro-phenyl]-[1.3,4]oxadiazol-2-ylamine] |  | 
16 |  | CCc1ccc(Nc2c(-c3nnc(N(C)C4CCN(C)C4)o3)ccc(F)c2F)c(F)c1 (stereo not shown) [Example 102, {5-[2-(4-Ethyl-2-fluoro-phenylamino)-3,4-difluoro-phenyl]-1,3,4-oxadiazol-2-yl}-methyl-(1-methyl-pyrrolidin-3-yl)-amine] | 42.4 | 54.6
17 |  | COc1cccc(CCNc2nnc(-c3ccc(F)c(F)c3Nc3ccc(I)cc3F)o2)c1 [Example 39, {5-[3,4-Difluoro-2-(2-fluoro-4-iodo-phenylamino)-phenyl]-[1,3,4]oxadiazol-2-yl}-[2-(3-methoxy-phenyl)-ethyl]-amine] | 0 | 40.2
18 |  | CCc1ccc(Nc2c(-c3nnc(NCCc4cccs4)o3)ccc(F)c2F)c(F)c1 [Example 114, {5-[2-(4-Ethyl-2-fluoro-phenylamino)-3,4-difluoro-phenyl]-1,3,4-oxadiazol-2-yl}-(2-thiophen-2-yl-ethyl)-amine] | 35.4 | 46.3
19 |  | COc1ccc(OC)c(CCNc2nnc(-c3ccc(F)c(F)c3Nc3ccc(I)cc3F)o2)c1 [Example 41, {5-[3,4-Difluoro-2-(2-fluoro-4-iodo-phenylamino)-phenyl]-[1,3,4]oxadiazol-2-yl}-[2-(2,5-dimethoxy-phenyl)-ethyl]-amine] | 0 | 29.8
20 |  | CCC(C)Nc1nnc(-c2ccc(F)c(F)c2Nc2ccc(I)cc2F)o1 (stereo not shown) [Example 46, sec-Butyl-{5-[3,4-difluoro-2-(2-fluoro-4-iodo-phenylamino)-phenyl]-[1,3,4]oxadiazol-2-yl}-amine] | 31.2 | 31.6
21 |  | Fc1cc(I)ccc1Nc1c(-c2nnc(NCCc3cccs3)o2)ccc(F)c1F [Example 38, {5-[3,4-Difluoro-2-(2-fluoro-4-iodo-phenylamino)-phenyl]-[1,3,4]oxadiazol-2-yl}-(2-thiophen-2-yl-ethyl)-amine] | 0 | 65.1
22 |  | CCN(CC)C1CCN(c2nnc(-c3ccc(F)c(F)c3Nc3ccc(I)cc3F)o2)C1 (stereo not shown) [Example 60, (1-{5-[3,4-Difluoro-2-(2-fluoro-4-iodo-phenylamino)-phenyl]-[1,3,4]oxadiazol-2-yl}-pyrrolidin-3-yl)-diethyl-amine] | 8.2 | 68
23 |  | CN(CCc1ccccn1)c1nnc(-c2ccc(F)c(F)c2Nc2ccc(I)cc2F)o1 [Example 44, {5-[3,4-Difluoro-2-(2-fluoro-4-iodo-phenylamino)-phenyl]-[1,3,4]oxadiazol-2-yl}-methyl-(2-pyridin-2-yl-ethyl)-amine] | 5.2 | 19
24 | 86 | Cn1cccc1CCNc1nnc(-c2ccc(F)c(F)c2Nc2ccc(I)cc2F)o1 [Example 52, {5-[3,4-Difluoro-2-(2-fluoro-4-iodo-phenylamino)-phenyl]-[1,3,4]oxadiazol-2-yl}-[2-(1-methyl-1H-pyrrol-2-yl)-ethyl]-amine] |  | 
25 |  | COc1ccc(CCN(C)c2nnc(-c3ccc(F)c(F)c3Nc3ccc(I)cc3F)o2)cc1OC [Example 42, {5-[3,4-Difluoro-2-(2-fluoro-4-iodo-phenylamino)-phenyl]-[1,3,4]oxadiazol-2-yl}-[2-(3,4-dimethoxy-phenyl)-ethyl]-methyl-amine] | 8.3 | 10
26 |  | O=C1OCCC1Nc1nnc(-c2ccc(F)c(F)c2Nc2ccc(I)cc2F)o1 (stereo not shown) [Example 57, 3-{5-[3,4-Difluoro-2-(2-fluoro-4-iodo-phenylamino)-phenyl]-[1,3,4]oxadiazol-2-ylamino}-dihydro-furan-2-one] | 31.3 | 51.8
27 | > 1000 | CN(C)CCCN(C)c1nnc(-c2ccc(F)c(F)c2Nc2ccc(I)cc2F)o1 [Example 12, N-{5-[3,4-Difluoro-2-(2-fluoro-4-iodo-phenylamino)-phenyl]-[1,3,4]oxadiazol-2-yl}-N,N′,N′-trimethyl-propane-1,3-diamine] |  | 
